The record followed here is patent publication US20230286955A1, “INHIBITORS OF THEM1” (Cornell University, priority 2022, published 2023).

For orientation: Kd means the equilibrium constant for the complex coming apart.

A short description of one data set: in vitro. The following applies: C57BL/6, mouse, primary brown adipocytes.
Data set [1] relates to primary brown adipocytes cultured from A-Them1Tg mice. Description: Oxygen consumption rates (OCR) in primary brown adipocytes. The format is cell-based, mouse. As to conditions: compounds at their in vitro IC50 concentrations, 30 min, NE 1 μM; vs wild type (DMSO). Here is the method: Primary brown adipocytes from 4- to 6-w old wild type and A-Them1Tg mice were isolated, cultured and differentiated as described (Okada et al., 2016). In brief, BAT tissues harvested from 5- to 7-w old mice were pooled, minced and digested with collagenase B (Sigma-Aldrich; St. Louis, MO), and dispersed in growth medium [DMEM/F12 containing 4.5 g/L glucose, 0.1 mM pyruvate, 10 mM HEPES (Thermo Fisher; Waltham, MA) supplemented with 1% penicillin/streptomycin, 1% GlutaMAX (Thermo Fisher; Waltham, MA) and 20% fetal bovine serum]. […] Upon achieving confluence, pre-adipocytes were induced to differentiate for 8 d by culturing for the first 48 h in differentiation medium [DMEM/F12 containing 4.5 g/L glucose, 0.1 mM pyruvate, 10 mM HEPES (Thermo Fisher; Waltham, MA) supplemented with 1% penicillin/streptomycin, 1% GlutaMAX (Thermo Fisher; Waltham, MA), 10% fetal bovine serum, bovine insulin (5 μg/mL; Thermo Fisher; Waltham, MA) and rosiglitazone (1 μM; Sigma Aldrich; St. Louis, MO)] supplemented with dexamethasone (5 μM; Sigma Aldrich; St. Louis, MO) and 3-isobutyl-1-methylxanthine (0.5 mM; Sigma Aldrich; St. Louis, MO) and differentiation medium thereafter. On differentiation d 6 to 8, the adipocyte differentiation media was supplemented with L-(−)-norepinephrine (+) bitartrate (Calbiochem; EMD Millipore; Billerica, MA). Primary brown adipocytes were maintained in a cell culture incubator at 37° C. with 5% CO2.
In primary brown adipocytes on d 8 of differentiation, values of OCR were measured in the presence or absence of compounds using a Seahorse XF96 extracellular flux analyzer (Agilent Technologies; Santa Clara, CA). […] OCR values were measured before and after the exposure of cells to NE (1 μM) and normalized with total live cell count calculated through staining with NucRed Live probe (Thermo Fisher; Waltham, MA) measured at 715 nm emission and 623 nm excitation using a SpectraMax i3X plate reader (Molecular Devices; San Jose; CA).

In a further data set the target is full-length human Acot12 (Homo sapiens, UniProt Q8WYK0). Briefly: biochemical.
The next data set has as its target T1, recombinant human Them1 (Homo sapiens, UniProt Q8WXI4).
T1 construct: Reaction labeling recombinant full-length Them1; made in house; host or cells: E. coli Shuffle T7
T1 sequence (Q8WXI4 14-594 isoform Q8WXI4-2 limits assumed): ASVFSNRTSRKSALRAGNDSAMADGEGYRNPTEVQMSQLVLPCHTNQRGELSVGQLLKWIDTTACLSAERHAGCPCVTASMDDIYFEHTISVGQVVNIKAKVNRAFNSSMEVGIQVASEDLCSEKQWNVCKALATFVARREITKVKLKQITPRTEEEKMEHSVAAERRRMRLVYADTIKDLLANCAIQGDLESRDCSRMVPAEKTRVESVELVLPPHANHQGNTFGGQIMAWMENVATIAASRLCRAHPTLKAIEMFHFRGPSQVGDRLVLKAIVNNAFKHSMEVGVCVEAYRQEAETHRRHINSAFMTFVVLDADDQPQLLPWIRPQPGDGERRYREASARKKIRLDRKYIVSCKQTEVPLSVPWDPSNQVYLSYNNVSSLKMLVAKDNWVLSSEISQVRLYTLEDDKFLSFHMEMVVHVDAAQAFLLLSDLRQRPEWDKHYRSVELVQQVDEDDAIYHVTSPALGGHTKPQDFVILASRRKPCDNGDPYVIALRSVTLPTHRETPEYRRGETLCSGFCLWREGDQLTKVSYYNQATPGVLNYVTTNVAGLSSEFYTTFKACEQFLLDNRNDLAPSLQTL
Description: Acot activity assay (fluorometric, C14-CoA), inhibition of Them1. The following applies: in words. The format is biochemical. As for the experimental part: Human Them1 consists of two splice variants (Them1a and Them1b) that are distinguished by an additional 13 amino acids at the C-terminus of the ‘a’ isoform (Adams et al., 2001). […] Sufficient quantities of recombinant Them1 required for the HTS were obtained as a service of the University of Georgia Bioexpression and Fermentation Core Facility (Athens, GA). […] Purity of recombinant Them1 was analyzed by SDS-PAGE followed by Coomassie Brilliant Blue staining. The concentration of recombinant Them1 was determined according to the molar extinction coefficient at 280 nm, which was calculated based on the amino acid sequence (www.expasy.org). Single use aliquots of recombinant Them1 were stored at −80° C. until use to prevent protein precipitation during purification. The pH values of all buffers were adjusted to remain at least two units removed from the pI of recombinant Them1.

The target in the next data set is T2, full-length Them1 (Homo sapiens, UniProt Q8WXI4).
T2 sequence (Q8WXI4 14-594 isoform Q8WXI4-2 limits assumed): T1 sequence (Q8WXI4 14-594 isoform Q8WXI4-2 limits assumed)
Description: Microscale thermophoresis binding, full-length Them1. As to conditions: in words.

For a further data set, the target named is T3, Them1-ΔSTART (Homo sapiens, UniProt Q8WXI4).
T3 sequence (Q8WXI4 43-329 isoform Q8WXI4-2 limits assumed): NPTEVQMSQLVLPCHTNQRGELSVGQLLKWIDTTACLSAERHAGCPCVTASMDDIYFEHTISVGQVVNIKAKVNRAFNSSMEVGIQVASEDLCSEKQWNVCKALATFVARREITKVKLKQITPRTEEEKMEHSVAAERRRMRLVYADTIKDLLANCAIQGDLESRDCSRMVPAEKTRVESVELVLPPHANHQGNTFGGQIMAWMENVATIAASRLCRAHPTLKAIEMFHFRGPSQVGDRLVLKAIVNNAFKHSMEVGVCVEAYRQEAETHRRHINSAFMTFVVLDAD
Briefly: Microscale thermophoresis binding, Them1-ΔSTART. The following applies: for Kd: read-out: Kd, Thioesterase domains (Them1-ΔSTART ), MST, 100 nM labeled protein, 22° C.; for binding to Them1-ΔSTART: in words. On the technique in general: In MST a laser heats a spot of the sample, and binding alters the fluorescence response.

Another data set has as its target T4, Them1 START domain (Homo sapiens, UniProt Q8WXI4).
T4 sequence (Q8WXI4 339-594 isoform Q8WXI4-2): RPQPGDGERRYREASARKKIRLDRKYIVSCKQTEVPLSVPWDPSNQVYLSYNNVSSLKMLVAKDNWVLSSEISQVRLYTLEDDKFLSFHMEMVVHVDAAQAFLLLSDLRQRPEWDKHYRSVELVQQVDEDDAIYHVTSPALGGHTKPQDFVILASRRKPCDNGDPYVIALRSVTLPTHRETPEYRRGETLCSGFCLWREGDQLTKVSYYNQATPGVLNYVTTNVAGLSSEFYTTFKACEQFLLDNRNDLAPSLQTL
Briefly: Microscale thermophoresis binding, START domain. The following applies: in words.

Chain of full-length human Acot12 (Q8WYK0 whole entry): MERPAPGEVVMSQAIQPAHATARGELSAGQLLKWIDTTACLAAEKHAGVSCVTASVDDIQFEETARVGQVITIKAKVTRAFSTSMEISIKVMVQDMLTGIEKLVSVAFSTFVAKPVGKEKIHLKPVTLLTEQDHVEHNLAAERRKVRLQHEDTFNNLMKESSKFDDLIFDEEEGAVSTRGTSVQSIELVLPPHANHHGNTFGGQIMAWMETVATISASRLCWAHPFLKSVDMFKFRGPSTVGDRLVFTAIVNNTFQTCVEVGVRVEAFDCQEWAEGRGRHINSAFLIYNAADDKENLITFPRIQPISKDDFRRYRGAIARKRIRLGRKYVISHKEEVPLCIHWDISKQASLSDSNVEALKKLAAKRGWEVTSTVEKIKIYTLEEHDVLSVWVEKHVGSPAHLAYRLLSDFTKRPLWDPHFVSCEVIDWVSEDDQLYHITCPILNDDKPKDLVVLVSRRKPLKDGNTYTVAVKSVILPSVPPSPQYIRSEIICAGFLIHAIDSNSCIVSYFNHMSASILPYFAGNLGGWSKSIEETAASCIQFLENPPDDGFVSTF
Description for Them1 START domain: A synthetic gene encoding the START domain was cloned into a pNIC28-Bsa4 bacterial expression vector (Novagen, EMD Biosciences; Madison, WI), which introduced an in-frame N-terminal His6 fusion containing a tobacco etch virus protease cleavage site to facilitate tag removal. The pNIC28-Bsa4-START domain plasmid was co-transformed into E. coli BL21 (DE3) (New England Biolabs; Ipswich, MA) competent cells with a pG-Tf2 vector (encoding groES-gorEL-tig chaperones) and then grown to an A600 of 0.5-0.7 in terrific broth. Under conditions of shaking (250 rpm) at 18° C., chaperones were induced by the addition of 5 ng/mL tetracycline HCl for 60 min followed by START domain induction upon the addition of 0.5 mM isoproyl β-D-thiogalactoside for ˜18 h. The bacteria were harvested by centrifugation, and then lysed by sonication with 20 mM Tris-Cl (pH 7.4), 500 mM NaCl, 25 mM imidazole, 5% glycerol, lysozyme, Dnase A, 0.1% Triton X-100, 5 mM β-mercaptoethanol and 100 μM phenylmethylsulfonyl fluoride. Following centrifugation of the bacterial lysate, recombinant START was purified by FPLC using a His affinity column (HisTrap HP column; GE Healthcare; Waukesha, WI). The soluble fraction containing recombinant START was applied to the column after equilibration with 20 mM Tris-Cl (pH 7.4), 500 mM NaCl, 25 mM imidazole and 5% glycerol, and then washed with the same buffer. Recombinant START was eluted from the HisTrap HP column using 20 mM Tris-Cl (pH 7.4), 500 mM NaCl, 500 mM imidazole and 5% glycerol followed by tobacco etch virus protease-mediated His-tag cleavage at 4° C. overnight with simultaneous dialysis into 20 mM Tris-Cl (pH 7.4), 500 mM NaCl and 5% glycerol. Recombinant START was further purified using a Superdex column (HiLoad 16/60 Superdex 75 column; GE Healthcare; Waukesha, WI) in 20 mM Tris-Cl (pH 7.4), 500 mM NaCl and 5% glycerol. Assessment of purity, protein concentration and storage of single use aliquots of recombinant START were performed as described above for recombinant Them1.
Reaction labeling recombinant full-length Them1, Them1l-ΔSTART, START or Acot12 with Monolith RED-Tris-NTA (NanoTemper Technologies; San Francisco, CA) were performed according to the manufacturer's instructions in buffer containing PBS plus 0.5% Tween-20 for 60 min at 22° C. with a molar dye: protein ratio=1:1. […] Working concentrations of compounds were prepared by diluting in microscale thermophoresis buffer. […] Fluorescence was measured using a Monolith NT.115 instrument (NanoTemper Technologies; San Francisco, CA) at 22° C. with instrument parameters adjusted to 40% LED power and medium microscale thermophoresis power. […]
Description for Them1-ΔSTART: (§1) Data represent the mean (s.e.m.) of triplicate determinations. Where not visible, error bars are contained within the symbol sizes.
(§2) Reaction labeling recombinant full-length Them1, Them1l-ΔSTART, START or Acot12 with Monolith RED-Tris-NTA (NanoTemper Technologies; San Francisco, CA) were performed according to the manufacturer's instructions in buffer containing PBS plus 0.5% Tween-20 for 60 min at 22° C. with a molar dye: protein ratio=1:1. […] Working concentrations of compounds were prepared by diluting in microscale thermophoresis buffer. Reactions consisting of 100 nM of fluorescently labeled recombinant protein (full-length Them1, Them1-ΔSTART, START or Acot12) and compounds were loaded onto standard Monolith NT.115 Capillaries (NanoTemper Technologies; San Francisco, CA). Fluorescence was measured using a Monolith NT.115 instrument (NanoTemper Technologies; San Francisco, CA) at 22° C. with instrument parameters adjusted to 40% LED power and medium microscale thermophoresis power. Data were fitted by non-linear regression in GraphPad Prism (GraphPad Software; San Diego, CA).
Description for full-length Them1: as §1, §2
Description for full-length human Acot12: as §2
Description for in vitro: Cytotoxicities of compounds were determined using a CellTiter-Glo® Luminescent Cell Viability Assay, which measures concentrations of ATP liberated from viable cells (Promega; Madison, WI). […] Tamoxifen (50 μM) was used as a (+) control. CellTiter-Glo reagent (10 μL) was added to each well and incubated on an orbital shaker for 10 min at 22° C. to induce cell lysis and stabilize the luminescent signal. Relative luminescent units (RLU) were determined using a NEO plate reader (BioTek, Winooski, VT).

For the molecule `Cc1[nH]c2ccccc2c1C(c1cccs1)N1CCN(Cc2ccccc2)CC1` (centres unmarked) [3-((4-benzylpiperazin-1-yl)(thiophen-2-yl)methyl)-2-methyl-1H-indole], in the data set “in vitro”, the CC50 at 48 h was greater than 125 µM. The “OCR in A-Them1Tg brown adipocytes, reversal of Them1 suppression” value (from here on “OCR in A-Them1Tg brown adipocytes”) in data set [1] is reported as “reversed the suppressive effects of Them1 on values of OCR”. The molecule also displayed a Kd at full-length human Acot12 greater than 125 µM.
On to `Cc1[nH]c2ccccc2c1C(c1cccs1)N1CCCC1` (centres unmarked) [Compound U2], for which, in “in vitro”, the CC50 at 48 h is greater than 125 µM.
In “in vitro”, `Cc1[nH]c2ccccc2c1C(c1cccs1)N1CCN(C)CC1` (centres unmarked) [Compound U3] registered a CC50 at 48 h greater than 125 µM.
`Cc1[nH]c2ccccc2c1C(c1cccs1)N1CCN(c2ccccc2)CC1` (centres unmarked) [Compound U4]: at recombinant human Them1, the “IC50 value compared to the parent U1 compound” value was “comparable”. The CC50 at 48 h in “in vitro” is greater than 125 µM. Moreover, the “Kd / binding affinity to full-length Them1 compared to the parent U1 compound” value at full-length Them1 is “comparable”.
In the data set “in vitro”, `Cc1[nH]c2ccccc2c1C(c1cccs1)N1CCOCC1` (centres unmarked) [Compound U5] showed a CC50 at 48 h greater than 125 µM.
With `Cc1[nH]c2ccccc2c1C(c1cccs1)N1CCCCC1` (centres unmarked) [Compound U6], the Kd at Them1-ΔSTART and on full-length human Acot12 was greater than 125 µM each time. The molecule further gave a CC50 at 48 h in “in vitro” greater than 125 µM. Moreover, in data set [1], the “OCR in A-Them1Tg brown adipocytes” value was “reversed the suppressive effects of Them1 on values of OCR”.
On to `CCOC(=O)C1CCN(C(c2cccs2)c2c(C)[nH]c3ccccc23)CC1` (centres unmarked) [Compound U7, ethyl 1-((2-methyl-1H-indol-3-yl)(thiophen-2-yl)methyl)piperidine-4-carboxylate], for which the “binding affinity to the START domain compared to the parent U1 compound” value at Them1 START domain is listed as “comparable”. For the same molecule, at Them1-ΔSTART, the “binding to Them1-ΔSTART” value was “did not bind” and the Kd was greater than 125 µM. In addition, in the data set “in vitro”, the CC50 at 48 h was greater than 125 µM. Moreover, the Kd on full-length human Acot12 is greater than 125 µM. Further, the “Kd / binding affinity to full-length Them1 compared to the parent U1 compound” value on full-length Them1 is “comparable”.
For `Cc1[nH]c2ccccc2c1C(c1cccs1)N1CCNCC1` (centres unmarked) [Compound U9, 2-methyl-3-(piperazin-1-yl(thiophen-2-yl)methyl)-1H-indole], the Kd on Them1-ΔSTART and at full-length human Acot12 was greater than 125 µM in each case. Moreover, the CC50 at 48 h in the data set “in vitro” is greater than 125 µM. The “OCR in A-Them1Tg brown adipocytes” value in data set [1] was “reversed the suppressive effects of Them1 on values of OCR”.
With `CC(=O)N1CCN(C(c2cccs2)c2c(C)[nH]c3ccccc23)CC1` (centres unmarked) [Compound U10, 1-(4-((2-methyl-1H-indol-3-yl)(thiophen-2-yl)methyl)piperazin-1-yl)ethan-1-one], the Kd at Them1-ΔSTART and on full-length human Acot12 was greater than 125 µM in each case. Moreover, in the data set “in vitro”, the CC50 at 48 h is greater than 125 µM.
In the case of `Cc1[nH]c2ccccc2c1C(c1cccs1)N1CCN(C(=O)c2ccccc2)CC1` (centres unmarked) [Compound U13, (4-((2-methyl-1H-indol-3-yl)(thiophen-2-yl)methyl)piperazin-1-yl)(phenyl)methanone], at Them1 START domain, the “binding affinity to the START domain compared to the parent U1 compound” value was “comparable”. On Them1-ΔSTART, the “binding to Them1-ΔSTART” value is given as “did not bind” and the Kd is greater than 125 µM. The same molecule displayed a CC50 at 48 h in “in vitro” greater than 125 µM. Further, the Kd at full-length human Acot12 is greater than 125 µM. For the same molecule, the “Kd / binding affinity to full-length Them1 compared to the parent U1 compound” value on full-length Them1 is reported as “comparable”.
Consider `CCOC(=O)N1CCN(C(c2ccc(C)s2)c2c(C)[nH]c3ccccc23)CC1` (centres unmarked) [Compound U16, ethyl 4-((2-methyl-1H-indol-3-yl)(5-methylthiophen-2-yl)methyl)piperazine-1-carboxylate], for which, at Them1 START domain, the “binding affinity to the START domain compared to the parent U1 compound” value is given as “comparable”. In addition, on Them1-ΔSTART, the “binding to Them1-ΔSTART” value is reported as “did not bind”. Moreover, the Kd on Them1-ΔSTART and at full-length human Acot12 was greater than 125 µM in each case. Also, the CC50 at 48 h in the data set “in vitro” is greater than 125 µM. In addition, the “Kd / binding affinity to full-length Them1 compared to the parent U1 compound” value on full-length Them1 was “comparable”.
As to `Cc1[nH]c2ccccc2c1C(c1cccs1)N1CCN(C(=O)OCc2ccccc2)CC1` (centres unmarked) [benzyl 4-((2-methyl-1H-indol-3-yl)(thiophen-2-yl)methyl)piperazine-1-carboxylate], in data set [1], the “OCR in A-Them1Tg brown adipocytes” value is listed as “remained suppressed”. The molecule further had a Kd at full-length human Acot12 greater than 125 µM.
`CCOC(=O)N1CCN(C(c2ccccc2)c2c(C)[nH]c3ccccc23)CC1` (centres unmarked) [ethyl 4-((2-methyl-1H-indol-3-yl)(phenyl)methyl)piperazine-1-carboxylate] displayed a Kd on full-length human Acot12 greater than 125 µM.
